The source of these data is patent US11547697B2, “Heterocyclic compounds and uses thereof” (MILLENNIUM PHARMACEUTICALS, INC., priority 2009, dated 2023).

pIC50: −log10 of the molar value. Entries after “also recorded” stand apart in the source; their conditions may differ. A value given as a limit tells only on which side of the number the result lay.

In series [1] the test system is MDA-MB-361 (PI3Kα/HER2 carcinoma) tumors. Kind of series: In vivo efficacy in xenogenic mouse model of breast cancer.
Method: Blood glucose is monitored periodically following administration of treatment. […] The effect of the compounds on the localization/viability of marginal zone B cells in the spleen is also evaluated at the conclusion of treatment.
For the next series, the target named is p110α/p85α (Homo sapiens (Human), UniProt P42336). Kind of series: PI 3-Kinase (human) HTRF assay, p110α/p85α. In kind it is biochemical. To be noted: PI3K α compared with β, δ, γ.
In series [2] the test system is human umbilical vein endothelial cells (HUVEC). Kind of series: In vitro inhibition of angiogenesis, tube formation assay. In kind it is cell-based. To be noted: FIG. 3. As for the experimental part:
Inhibition of angiogenesis in the presence of test compound is evaluated using a tube formation assay, such as by using a tube formation assay kit (e.g., commerically available from Invitrogen). Angiogenic capacity can be measured in vitro using an endothelial cell line, such as human umbilical vein endothelial cells (HUVEC). The assay is conducted according to the kit instructions, in the presence or absence of compound. Briefly, a gel matrix is applied to a cell culture surface, cells are added to the matrix-covered surface along with growth factors, with some samples also receiving an inhibitor compound, cells are incubated at 37° C. and 5% CO2 long enough for control samples (no compound added) to form tube structures (such as overnight), cells are stained using a cell-permeable dye (e.g., calcein), and cells are visualized to identify the degree of tube formation. Any decrease in tube formation relative to un-inhibited control cells is indicative of angiogenic inhibition. […] Based on doses tested and the corresponding degree of tube formation inhibition, IC50 values for tube formation are calculated. FIG. 3 also provides IC50 values for cell viability, which can be measured using any number of methods known in the art, such as staining methods that distinguish live from dead cells (e.g., Image-iT DEAD Green viability stain commercially available from Invitrogen).

In a further series the target is p110γ (Homo sapiens (Human), UniProt P48736). The series is described as follows: PI 3-Kinase (human) HTRF assay, p110γ. To be noted: read-out: PI3K γ IC50. In kind it is biochemical. A general note: In TR-FRET formats the signal depends on donor and acceptor labels being close together.
The subject of series [3] is tumor cells with a PI3Kα mutation (e.g., MDA-MB-361 and T47D). The series is described as follows: Proliferation of tumor cells with PI3Kα mutation. In kind it is cell-based.
In a further series the test system is HCT116 cells. Kind of series: Cell arrest assay, alone and in combination with MEK inhibitor. In kind it is cell-based, human. As for the experimental part:
Cells are then incubated in the presence of DMSO or inhibitor for 20 hours. The number of cells at each stage in the cell cycle is determined and expressed as a percent of the total, with an increase in the number of cells arrested at pre-GO/G1 indicating effective inhibition of cell cycle progression.

In series [4] the test system is 786-O cells, a human kidney carcinoma cell line. Kind of series: In vivo efficacy in 786-O xenograft (non-mutated PI3Kα). More on the design: species or system mice. To be noted: FIG. 6. An excerpt:
For example, a test compound is compared to a kinase inhibitor with specificity for mTor. […] FIG. 6 also provides biochemical potency data for the two compared inhibitors.

The test system of series [5] is pAKT(S473), pAKT(T308), pS6, p4E-BP1 in MDA-MB-361, T47D, PC3 cells. The series is described as follows: Inhibition of PI3K pathway in tumor cells (Western blot of pAKT, pS6, p4E-BP1). In kind it is cell-based. To be noted: FIG. 2; 0.1 μM, 1 μM, and 10 μM, about 2 hours. As for the experimental part:
Cells comprising one or more mutations in PI3Kα, including but not limited to breast cancer cells (e.g., MDA-MB-361 and T47D), and cells comprising one or more mutations in PTEN including but not limited to prostate cancer cells (e.g., PC3), are typically grown in cell growth media such as DMEM supplemented with fetal bovine serum and/or antibiotics, and grown to confluency. Cells are then treated with various concentrations of test compound for about 2 hours and subsequently lysed in cell lysis buffer. Lysates are subjected to SDS-PAGE followed by Western blot analysis to detect downstream signaling markers, including but not limited to pAKT(S473), pAKT(T308), pS6, and p4E-BP1.

Chain of p110α/p85α (P42336 whole entry): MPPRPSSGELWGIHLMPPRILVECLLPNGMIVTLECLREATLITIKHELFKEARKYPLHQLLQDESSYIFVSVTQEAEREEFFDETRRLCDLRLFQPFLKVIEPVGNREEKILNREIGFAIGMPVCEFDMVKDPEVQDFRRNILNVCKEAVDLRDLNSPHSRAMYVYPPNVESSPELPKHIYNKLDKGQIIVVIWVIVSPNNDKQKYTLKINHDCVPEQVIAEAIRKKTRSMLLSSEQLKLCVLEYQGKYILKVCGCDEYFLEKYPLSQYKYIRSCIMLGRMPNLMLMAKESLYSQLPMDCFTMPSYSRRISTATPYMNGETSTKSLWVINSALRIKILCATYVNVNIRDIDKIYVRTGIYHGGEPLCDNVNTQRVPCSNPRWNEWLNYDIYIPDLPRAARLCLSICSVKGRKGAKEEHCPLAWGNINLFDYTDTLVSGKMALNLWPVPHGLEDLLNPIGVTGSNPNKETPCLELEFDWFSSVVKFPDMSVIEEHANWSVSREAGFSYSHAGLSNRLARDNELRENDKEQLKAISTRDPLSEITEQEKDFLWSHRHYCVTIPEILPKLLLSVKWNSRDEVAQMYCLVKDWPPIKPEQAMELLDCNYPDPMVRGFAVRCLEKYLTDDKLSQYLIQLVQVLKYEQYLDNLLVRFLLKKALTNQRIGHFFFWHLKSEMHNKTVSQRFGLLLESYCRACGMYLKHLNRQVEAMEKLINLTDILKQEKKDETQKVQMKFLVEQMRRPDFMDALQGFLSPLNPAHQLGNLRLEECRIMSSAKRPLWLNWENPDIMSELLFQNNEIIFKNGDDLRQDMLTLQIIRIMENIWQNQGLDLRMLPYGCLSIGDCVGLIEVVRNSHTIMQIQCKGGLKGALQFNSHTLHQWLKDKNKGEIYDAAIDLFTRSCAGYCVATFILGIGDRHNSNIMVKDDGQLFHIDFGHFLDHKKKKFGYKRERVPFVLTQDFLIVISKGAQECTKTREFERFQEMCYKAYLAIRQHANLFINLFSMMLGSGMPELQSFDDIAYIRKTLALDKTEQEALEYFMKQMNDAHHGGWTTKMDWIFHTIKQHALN
Chain of p110α/p85α (P27986 whole entry partner): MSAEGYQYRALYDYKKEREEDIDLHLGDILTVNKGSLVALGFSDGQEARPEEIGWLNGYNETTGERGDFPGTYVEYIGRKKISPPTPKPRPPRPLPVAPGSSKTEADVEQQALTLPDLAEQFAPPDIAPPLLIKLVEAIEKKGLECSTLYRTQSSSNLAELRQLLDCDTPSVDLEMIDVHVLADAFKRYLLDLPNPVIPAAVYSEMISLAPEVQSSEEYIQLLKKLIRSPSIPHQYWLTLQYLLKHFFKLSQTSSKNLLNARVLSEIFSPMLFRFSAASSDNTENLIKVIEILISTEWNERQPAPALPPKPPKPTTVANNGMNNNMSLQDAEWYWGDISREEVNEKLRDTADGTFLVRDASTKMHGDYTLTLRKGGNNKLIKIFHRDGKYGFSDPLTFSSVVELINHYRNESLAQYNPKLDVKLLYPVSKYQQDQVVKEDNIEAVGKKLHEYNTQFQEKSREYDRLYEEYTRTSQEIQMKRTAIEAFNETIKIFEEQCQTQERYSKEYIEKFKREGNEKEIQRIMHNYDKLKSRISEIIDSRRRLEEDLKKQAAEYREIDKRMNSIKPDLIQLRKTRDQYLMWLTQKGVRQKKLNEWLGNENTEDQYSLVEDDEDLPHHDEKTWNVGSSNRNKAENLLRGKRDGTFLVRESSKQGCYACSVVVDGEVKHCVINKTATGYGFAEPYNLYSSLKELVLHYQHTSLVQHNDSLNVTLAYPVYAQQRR
Chain of p110γ (P48736 whole entry): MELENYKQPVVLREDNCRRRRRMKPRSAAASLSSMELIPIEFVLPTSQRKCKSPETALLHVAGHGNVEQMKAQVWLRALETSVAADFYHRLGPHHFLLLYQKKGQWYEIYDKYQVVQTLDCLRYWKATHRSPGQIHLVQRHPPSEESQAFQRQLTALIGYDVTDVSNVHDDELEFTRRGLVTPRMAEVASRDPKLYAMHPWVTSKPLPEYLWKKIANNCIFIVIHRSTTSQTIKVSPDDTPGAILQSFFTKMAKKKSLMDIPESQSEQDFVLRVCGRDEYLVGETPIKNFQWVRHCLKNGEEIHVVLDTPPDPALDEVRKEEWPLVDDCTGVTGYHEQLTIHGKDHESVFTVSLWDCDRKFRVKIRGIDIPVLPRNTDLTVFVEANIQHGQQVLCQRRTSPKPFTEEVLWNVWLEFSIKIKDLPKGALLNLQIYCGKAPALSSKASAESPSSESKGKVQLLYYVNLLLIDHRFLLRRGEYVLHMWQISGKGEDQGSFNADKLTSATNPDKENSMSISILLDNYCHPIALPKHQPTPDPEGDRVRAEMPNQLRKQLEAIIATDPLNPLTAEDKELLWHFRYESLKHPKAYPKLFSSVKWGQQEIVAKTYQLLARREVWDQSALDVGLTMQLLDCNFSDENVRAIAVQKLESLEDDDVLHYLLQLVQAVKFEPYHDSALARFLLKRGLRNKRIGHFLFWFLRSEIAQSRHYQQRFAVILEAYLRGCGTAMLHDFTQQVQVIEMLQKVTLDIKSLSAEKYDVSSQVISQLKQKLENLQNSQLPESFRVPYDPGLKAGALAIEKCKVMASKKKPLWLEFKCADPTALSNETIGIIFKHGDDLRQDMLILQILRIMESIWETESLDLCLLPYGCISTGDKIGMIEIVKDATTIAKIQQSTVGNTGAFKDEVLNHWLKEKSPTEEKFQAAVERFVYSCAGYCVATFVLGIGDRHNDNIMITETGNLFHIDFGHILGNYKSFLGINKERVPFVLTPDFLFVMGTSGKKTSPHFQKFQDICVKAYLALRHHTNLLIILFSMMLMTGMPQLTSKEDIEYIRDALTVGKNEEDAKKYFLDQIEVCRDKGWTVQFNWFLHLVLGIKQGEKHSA
Method for p110α/p85α: An exemplary system is PI 3-Kinase (human) HTRF™ Assay from Upstate. […] Briefly, the assay is a time resolved FRET assay that indirectly measures PIP3 product formed by the activity of a PI3-K. The kinase reaction is performed in a microtitre plate (e.g., a 384 well microtitre plate). The total reaction volume is approximately 20 ul per well. In the first step, each well receives 2 ul of test compound in 20% dimethylsulphoxide resulting in a 2% DMSO final concentration. Next, approximately 14.5 ul of a kinase/PIP2 mixture (diluted in 1× reaction buffer) is added per well for a final concentration of 0.25-0.3 ug/ml kinase and 10 μM PIP2. The plate is sealed and incubated for 15 minutes at room temperature. To start the reaction, 3.5 ul of ATP (diluted in 1× reaction buffer) is added per well for a final concentration of 10 μM ATP. The plate is sealed and incubated for 1 hour at room temperature. The reaction is stopped by adding 5 ul of Stop Solution per well and then 5 ul of Detection Mix is added per well. The plate is sealed, incubated for 1 hour at room temperature, and then read on an appropriate plate reader. Data is analyzed and IC50s are generated using GraphPad Prism 5. […] For PI3K α, β, δ, and γ, the nM concentration of inhibitor to reach IC50 is provided.

For the compound `Nc1nc2cc(-c3ccc4ncc(C(=O)N5CCOCC5)n4c3)ccc2o1` [compound 54], the “Impact on blood glucose” value in series [1] (MDA-MB-361 tumor-bearing nude mice, daily oral dosing, FIG. 4) is “without the impact on blood glucose”. Further, the “Kinase- and tumor growth-inhibition activity” value in series [1] (MDA-MB-361 tumors in nude mice, 30 mpk or 60 mpk test compound, 70 mpk Pan-PI3K inhibitor, daily oral lavage, FIG. 4) was “comparable kinase- and tumor growth-inhibition activity to the Pan-PI3K inhibitor”. In addition, the “Localization/viability of marginal zone B cells in the spleen” value in series [1] (at conclusion of treatment, FIG. 5) is “does not affect localization/viability of marginal zone B cells”. The “Specificity of PI3K α inhibition versus PI3K β, δ and γ (IC50, FIG. 1 / FIG. 3)” value at p110α/p85α was “Inhibition of PI3K α at lower concentrations than those for β, δ, and γ; also recorded: specificity for PI3K α inhibition”. The “Potency of angiogenesis inhibition (tube formation) compared with Pan-PI3K inhibitor” value in series [2] is “comparable to higher potency”. The pIC50 on p110γ was above 5.00; in series [3] (Homo sapiens, T47D cells, read-out: T47D proliferation), above 5.00. The “Inhibition of proliferation of tumor cells with a PI3Kα mutation” value in series [3] (FIG. 2) is “inhibits the PI3K pathway and the proliferation of tumor cells with a PI3Kα mutation”. For the same compound, the “Arrested cells (pre-GO/G1), percent of the total” value in the series on HCT116 cells (3 μM compound 54 combined with 0.3 μM MEK inhibitor (PD0325901), 20 hours, FIG. 7) amounted to 55%. Moreover, in the series on HCT116 cells (3 μM compound 54 or 0.3 μM PD0325901, 20 hours), the “Cell cycle arrest, single inhibitor versus DMSO control” value is given as “some increase in cell cycle arrest by comparison to DMSO control”. In addition, the “Combination effect with other (MEK) inhibitors” value in the series on HCT116 cells (compound 54 plus MEK inhibitor) was “synergistic”. The “Arrested cells expected by merely adding the individual effects” value in the series with HCT116 cells (sum of 3 μM compound 54 alone and 0.3 μM MEK inhibitor alone, 20 hours) is on record as 40%. For the same compound, the “Anti-tumor activity in 786-O tumors” value in series [4] is “still showing some anti-tumor activity, has decreased activity by comparison to that seen in the MDA derived tumors”. Besides, in series [5], the “Inhibition of the PI3K pathway (downstream signaling markers)” value is given as “inhibits the PI3K pathway”.
